Experiments:
[1] = target: T1, BCL6 (Homo sapiens, UniProt P41182, C67R/C84N/C8Q); test: Identification of site(s) of covalent modification by tandem MS; conditions: 2 μM BCL6, 100 μM SF, 4 °C, 24 h; trypsin digest LC-MS/MS
T1 construct: hBCL6-Flag-6H-Avi 3Cmut (5–129) produced as part of the GSK/GenScript collaboration; Flag (C); 6H (His6) (C); Avi (C)
Protocol: The top hits from the SF screen with BCL6 represented two distinct chemotypes: meta-substituted benzamides (2f and 2g) and azetidine aryl ethers (2h and 2i). These were resynthesized and purified for follow-up studies. […] Tyr57 has previously been targeted by a BCL6 inhibitor (14, TMX-2164); however, the targeting of His115 is a novel modification; these residues are located on opposite sides of the binding site of previously reported BCL6 inhibitors (11–14) (see Figure 5b).
7. BCL6 – site of binding studies and iterative screen
7.1. Identification of the site(s) of covalent modification by tandem MS (BCL6)
The (resynthesized and purified) SF hits (2f–i) were plated into a Greiner 384 PP F-bottom plate from a 10 mM source in DMSO. Purified BCL6 diluted from original stock into a buffer made up of HEPES (pH 7.5, 25 mM) and NaCl (50 mM) in distilled MS-grade water (50 µL per well) was subsequently added across the plate. Final concentrations: 2 µM protein; 100 µM SF. The plate was sealed, centrifuged (1 min, 1000 rpm), incubated at 4 °C for 24 h, and 15 µL aliquots were subsequently removed and analyzed by intact protein LC-MS.
The remaining samples (1 μg) were separated by SDS-PAGE to remove excess unbound compound. Gels were stained with colloidal Comassie InstantBlue and bands corresponding to BCL6 were excised, reduced with 10 mM TCEP (65 °C, 30 mins), and alkylated with 10 mM iodoacetamide (r.t., 30 mins, dark). Samples were digested with trypsin (Promega) 1:10 E:S (37 °C, 16 h) in 100 mM ammonium bicarbonate. After removal of the supernatant, peptides were extracted using acetonitrile. Combined supernatants were concentrated in a SpeedVac centrifuge and acidified (0.1% formic acid, 0.05% trifluoroacetic acid) prior to injection into the LC-MS/MS system.
Digested samples were injected on an Easy-nLC 1200 UHPLC system (Thermo Scientific). The nanoLC was interfaced to an Orbitrap Fusion Lumos Mass Spectrometer (Thermo Scientific). Tryptic peptides were loaded on a 2 cm × 75 µm Acclaim PepMap 100 C18 trapping column (Thermo Scientific) and separated on a 25 cm × 75 μm, 2 µm particles, PepMap C18, 2 μm particle column (Thermo Scientific) using a 50 min gradient of 2–38% acetonitrile, 0.2% formic acid and a flow of 300 nL/min. LC-MS/MS based peptide sequencing was performed by data dependent analysis (DDA). Full MS 350–1600 Da at 120,000 resolution, MS AGC target 1e6, MS Maximum IT 50 ms, followed by MS/MS using a 3 sec. cycle time, stepped collision energy mode at 25, 29 and 32 CE%, Isolation window 1.6 m/z, fixed first mass 145 m/z, 15,000 orbitrap resolution, MS/MS AGC target 1e5 and MS/MS Maximum IT 200 ms. Alternatively, samples were analyzed by Parallel Reaction Monitoring (PRM) targeting precursor ions relative to the modified peptides. […]

[2] = target: BCL6 BTB/POZ domain (Homo sapiens, UniProt P41182, C67R/C84N/C8Q); test: Displacement study with GSK137, intact protein LC-MS; type: binding; set-up: hBCL6-Flag-6H-Avi 3Cmut (5–129) produced as part of the GSK/GenScript collaboration; Flag (C); 6H (His6) (C); Avi (C); conditions: for Modification (GSK137 treatment) / Modification (DMSO-d6 treatment): 1 μM protein, 50 μM SF, 20 °C, 24 h, average of duplicate; for Modification (GSK137 treatment): 50 μM GSK137; for Displacement Ratio: DModification/Modification(DMSO-d6 treatment); for Displacement: attenuation of covalent modification by GSK137; for DModification: difference DMSO-d6 vs GSK137 treatment
Text: With additional hits identified from the iterative screen, we sought to obtain further structural and biophysical information to better understand how these reactive fragments bind to BCL6. A total of eight SF hits were resynthesized and purified: the four from the original screen (2f–i) and four from the iterative screen (2p, 2q, 2s, and 2t). […]
8. BCL6 – Further investigations into hits by structural and biophysical studies
8.1. Displacement study with GSK137
The (resynthesized and purified) SF hits (2f–i, 2p, 2q, 2s, and 2t) were plated into a Greiner 384 white low volume plate from a 10 mM source in DMSO, or DMSO-d 6 only as a control. GSK137 (11) was also added from a 10 mM source in DMSO. Purified BCL6 diluted from original stock into a buffer made up of HEPES (pH 7.5, 25 mM) and NaCl (50 mM) in distilled MS-grade water (15 µL per well) was subsequently added across the plate. Final concentrations: 1 µM protein; 50 µM SF; 50 µM GSK137. The plate was sealed, centrifuged (1 min, 1000 rpm), incubated at 20 °C for 24 h, and subsequently analyzed by intact protein LC-MS. This was performed in duplicate and average covalent modification yields were used for analysis.
Table S8. Quantitative output from intact LC-MS analysis of BCL6 BTB/POZ domain reacted with SFs after incubation of DMSO-d 6 or GSK137. Extent of displacement measured as (DModification/Modification(DMSO-d 6 treatment)). […]

SMILES | site of covalent modification [1] | Modification (GSK137 treatment) [2] | Modification (DMSO-d6 treatment) [2] | Displacement Ratio [2] | Displacement [2] | DModification [2]
CN(C)C(=O)Nc1cccc(CNC(=O)Cc2ccc(S(=O)(=O)F)cc2)c1 [2f] | Tyr57 | 3.8% | 17.6% | 0.78 | 78% | 13.8%
CC(=O)Nc1cccc(CNC(=O)Cc2ccc(S(=O)(=O)F)cc2)c1 [2g] | Tyr57 | 4.8% | 25.0% | 0.81 | 81% | 20.2%
O=C(Cc1ccc(S(=O)(=O)F)cc1)N1CC(Oc2ccc(F)c(F)c2)C1 [2h] | His115 | 1.6% | 10.3% | 0.84 | 84% | 8.7%
NC(=O)c1ccccc1OC1CN(C(=O)Cc2ccc(S(=O)(=O)F)cc2)C1 [2i] | His115 | 1.6% | 19.7% | 0.92 | 92% | 18.1%
